Assay results taken from patent US20250186432A1, “SPLEEN TYROSINE KINASE INHIBITOR, COMPOSITION, AND METHODS OF USE” (PURDUE RESEARCH FOUNDATION, priority 2022, published 2025).
Where two headings read alike, the source gives them in different places.

Key:
[1] = biological target: Syk (Homo sapiens, UniProt P43405); test: ADP-Glo kinase inhibition assay, Syk
[2] = biological target: EGFR (Homo sapiens, UniProt P00533); test: ADP-Glo kinase inhibition assay, EGFR; format: biochemical; settings: for IC50: ADP-Glo
[3] = biological target: IGF1R (Homo sapiens, UniProt P08069); test: ADP-Glo kinase inhibition assay, IGF1R
[4] = biological target: HGFR (Homo sapiens, UniProt P08581); test: ADP-Glo kinase inhibition assay, HGFR; format: biochemical; settings: for IC50: ADP-Glo
[5] = biological target: VEGFR (Homo sapiens, UniProt P35916); test: ADP-Glo kinase inhibition assay, VEGFR; format: biochemical; settings: ADP-Glo
[6] = biological target: FGFR3 (Homo sapiens, UniProt P22607); test: ADP-Glo kinase inhibition assay, FGFR3
[7] = tested on: Band 3 tyrosine phosphorylation; test: Inhibition of Band 3 tyrosine phosphorylation (cellular potency); format: cell-based, human
[8] = LogP; format: physicochemical
Text: The compound can have a CLogP value between about 2.0 and about 5.0 (e.g., between 2.0 and about 5.0, about 2.0 and 5.0, or 2.0 and 5.0). In certain embodiments, e.g., compound S1213, the compound has a CLogP value of between about 1.0 and about 2.0 (e.g., between 1.0 and about 2.0, about 1.0 and 2.0, or 1.0 and 2.0). The term “cLogP” refers to a calculated partition coefficient which in the physical sciences, is the ratio of concentrations of a compound in a mixture of the two immiscible phases at equilibrium. These coefficients are a measure of the difference in solubility of the compound in these two phases. In general, this is a measure of hydrophobicity of the compound as one phase is aqueous (traditionally water) and the other is hydrophobic (traditionally octanol). Higher values indicate greater partitioning of the compound into the hydrophobic phase and support increased hydrophobicity.

[9] = Absolute oral bioavailability; settings: in vivo, read-out: Absolute oral bioavailability F
[10] = tested on: VEGFR; test: ADP-Glo kinase inhibition assay, VEGFR; format: biochemical; settings: selectivity ratio
[11] = pTyr, read-out: Inhibition of Band 3 Tyrosine Phosphorylation EC50, pTyr
[12] = Homo sapiens, read-out: Inhibition of Band 3 Tyrosine Phosphorylation EC50, pTyr
[13] = Homo sapiens, read-out: Inhibition of Band 3 Tyrosine Phosphorylation EC50, pTyr8
[14] = Homo sapiens, read-out: Inhibition of Band 3 Tyrosine Phosphorylation EC50, pTyr359

Sequence of HGFR (P08581 25-1390): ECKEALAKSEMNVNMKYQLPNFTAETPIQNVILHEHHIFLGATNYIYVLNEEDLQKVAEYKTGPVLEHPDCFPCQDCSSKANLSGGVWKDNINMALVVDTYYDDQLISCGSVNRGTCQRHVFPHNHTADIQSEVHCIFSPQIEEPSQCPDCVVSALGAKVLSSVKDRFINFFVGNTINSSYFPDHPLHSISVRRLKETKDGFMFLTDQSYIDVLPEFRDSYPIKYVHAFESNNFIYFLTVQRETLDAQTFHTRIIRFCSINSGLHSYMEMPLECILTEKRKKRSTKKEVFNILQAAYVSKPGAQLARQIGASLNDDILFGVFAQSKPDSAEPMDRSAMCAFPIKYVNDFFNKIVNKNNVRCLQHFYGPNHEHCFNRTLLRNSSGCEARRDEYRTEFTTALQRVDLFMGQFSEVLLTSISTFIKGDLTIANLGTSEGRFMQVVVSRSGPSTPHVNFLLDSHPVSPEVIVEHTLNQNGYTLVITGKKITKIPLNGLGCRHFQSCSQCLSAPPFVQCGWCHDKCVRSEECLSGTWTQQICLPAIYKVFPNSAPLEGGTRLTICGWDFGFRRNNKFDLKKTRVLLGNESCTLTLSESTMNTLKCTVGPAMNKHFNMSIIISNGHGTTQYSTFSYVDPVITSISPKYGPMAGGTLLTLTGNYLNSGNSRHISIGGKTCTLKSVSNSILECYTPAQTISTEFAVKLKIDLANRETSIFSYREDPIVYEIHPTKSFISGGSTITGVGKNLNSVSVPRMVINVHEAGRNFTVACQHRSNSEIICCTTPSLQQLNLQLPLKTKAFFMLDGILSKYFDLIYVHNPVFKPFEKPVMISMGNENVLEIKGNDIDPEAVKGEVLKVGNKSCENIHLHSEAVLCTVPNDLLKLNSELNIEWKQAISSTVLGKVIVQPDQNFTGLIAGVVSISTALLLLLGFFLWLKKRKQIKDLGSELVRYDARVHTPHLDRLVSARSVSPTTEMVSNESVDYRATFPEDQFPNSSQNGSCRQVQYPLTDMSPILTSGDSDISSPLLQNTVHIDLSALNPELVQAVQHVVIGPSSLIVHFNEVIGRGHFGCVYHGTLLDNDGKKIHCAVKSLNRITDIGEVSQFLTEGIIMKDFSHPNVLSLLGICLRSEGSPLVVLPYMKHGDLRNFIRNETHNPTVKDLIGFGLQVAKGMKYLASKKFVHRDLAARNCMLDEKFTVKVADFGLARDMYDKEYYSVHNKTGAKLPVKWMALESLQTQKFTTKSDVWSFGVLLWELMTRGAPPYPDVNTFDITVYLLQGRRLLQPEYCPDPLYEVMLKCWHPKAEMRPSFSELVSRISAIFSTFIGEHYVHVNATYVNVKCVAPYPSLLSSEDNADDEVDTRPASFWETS
Sequence of IGF1R (P08069 31-1367): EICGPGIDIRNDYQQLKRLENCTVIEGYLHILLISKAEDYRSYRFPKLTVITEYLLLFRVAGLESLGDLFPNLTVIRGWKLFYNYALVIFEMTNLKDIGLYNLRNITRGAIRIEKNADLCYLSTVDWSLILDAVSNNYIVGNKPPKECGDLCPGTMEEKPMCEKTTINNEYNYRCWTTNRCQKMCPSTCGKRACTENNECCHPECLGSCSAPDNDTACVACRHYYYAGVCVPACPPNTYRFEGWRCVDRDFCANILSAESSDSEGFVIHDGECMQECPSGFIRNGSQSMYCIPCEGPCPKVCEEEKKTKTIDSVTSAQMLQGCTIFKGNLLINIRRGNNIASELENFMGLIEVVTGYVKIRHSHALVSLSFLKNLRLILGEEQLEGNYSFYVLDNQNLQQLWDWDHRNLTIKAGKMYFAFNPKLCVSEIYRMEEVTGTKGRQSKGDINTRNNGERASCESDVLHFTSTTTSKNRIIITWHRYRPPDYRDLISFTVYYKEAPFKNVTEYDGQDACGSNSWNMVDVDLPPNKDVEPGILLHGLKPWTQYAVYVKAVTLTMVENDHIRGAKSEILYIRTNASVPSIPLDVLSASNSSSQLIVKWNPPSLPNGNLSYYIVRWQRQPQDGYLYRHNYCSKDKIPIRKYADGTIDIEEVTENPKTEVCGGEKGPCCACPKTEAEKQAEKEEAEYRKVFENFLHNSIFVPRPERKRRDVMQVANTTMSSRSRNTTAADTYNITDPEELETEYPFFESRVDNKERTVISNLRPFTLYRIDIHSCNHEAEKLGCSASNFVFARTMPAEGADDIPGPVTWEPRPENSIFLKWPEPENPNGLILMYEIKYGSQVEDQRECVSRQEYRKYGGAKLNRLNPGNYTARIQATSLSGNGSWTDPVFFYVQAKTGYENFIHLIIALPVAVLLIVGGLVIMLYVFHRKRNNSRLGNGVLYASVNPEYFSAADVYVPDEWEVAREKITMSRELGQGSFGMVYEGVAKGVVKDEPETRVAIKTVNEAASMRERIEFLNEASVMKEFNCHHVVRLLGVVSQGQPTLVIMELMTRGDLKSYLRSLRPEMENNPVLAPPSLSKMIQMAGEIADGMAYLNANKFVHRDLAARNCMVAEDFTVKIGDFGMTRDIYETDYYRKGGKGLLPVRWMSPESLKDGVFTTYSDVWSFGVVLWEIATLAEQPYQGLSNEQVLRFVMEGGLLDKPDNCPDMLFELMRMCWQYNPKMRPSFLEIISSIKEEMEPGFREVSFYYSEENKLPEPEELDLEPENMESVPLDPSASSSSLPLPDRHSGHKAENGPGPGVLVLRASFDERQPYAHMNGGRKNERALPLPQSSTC
Sequence of EGFR (P00533 25-1210): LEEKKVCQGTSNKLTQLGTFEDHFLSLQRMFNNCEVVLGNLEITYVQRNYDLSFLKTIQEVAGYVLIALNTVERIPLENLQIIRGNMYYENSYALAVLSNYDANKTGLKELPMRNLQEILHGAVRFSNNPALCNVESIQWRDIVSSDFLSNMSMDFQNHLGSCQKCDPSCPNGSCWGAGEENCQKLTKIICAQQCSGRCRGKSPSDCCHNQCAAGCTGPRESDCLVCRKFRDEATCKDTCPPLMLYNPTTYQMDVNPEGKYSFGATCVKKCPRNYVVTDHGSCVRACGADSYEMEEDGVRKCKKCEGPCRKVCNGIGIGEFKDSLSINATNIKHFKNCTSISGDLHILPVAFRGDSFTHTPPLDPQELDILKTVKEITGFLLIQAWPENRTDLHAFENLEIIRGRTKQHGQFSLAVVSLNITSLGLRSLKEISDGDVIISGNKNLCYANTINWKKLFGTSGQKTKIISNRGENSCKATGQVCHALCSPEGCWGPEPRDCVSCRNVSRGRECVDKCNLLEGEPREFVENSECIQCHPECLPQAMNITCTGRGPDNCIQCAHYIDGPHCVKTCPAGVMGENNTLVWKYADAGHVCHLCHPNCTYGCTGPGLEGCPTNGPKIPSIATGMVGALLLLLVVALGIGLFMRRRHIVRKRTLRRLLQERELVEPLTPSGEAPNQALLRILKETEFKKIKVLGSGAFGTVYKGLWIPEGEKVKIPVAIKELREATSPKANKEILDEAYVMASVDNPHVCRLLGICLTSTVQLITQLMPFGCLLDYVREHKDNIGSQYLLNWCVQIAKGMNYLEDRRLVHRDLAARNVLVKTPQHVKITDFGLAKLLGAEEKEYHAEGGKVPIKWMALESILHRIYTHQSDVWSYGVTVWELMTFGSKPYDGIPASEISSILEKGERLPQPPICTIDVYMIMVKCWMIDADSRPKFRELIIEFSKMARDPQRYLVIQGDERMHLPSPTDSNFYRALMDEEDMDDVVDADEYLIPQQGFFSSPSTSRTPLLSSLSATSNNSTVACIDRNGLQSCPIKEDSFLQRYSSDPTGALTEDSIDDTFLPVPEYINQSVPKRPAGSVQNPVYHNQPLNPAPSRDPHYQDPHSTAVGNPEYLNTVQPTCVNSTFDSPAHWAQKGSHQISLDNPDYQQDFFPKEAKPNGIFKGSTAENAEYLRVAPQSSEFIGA
Sequence of FGFR3 (P22607 23-806): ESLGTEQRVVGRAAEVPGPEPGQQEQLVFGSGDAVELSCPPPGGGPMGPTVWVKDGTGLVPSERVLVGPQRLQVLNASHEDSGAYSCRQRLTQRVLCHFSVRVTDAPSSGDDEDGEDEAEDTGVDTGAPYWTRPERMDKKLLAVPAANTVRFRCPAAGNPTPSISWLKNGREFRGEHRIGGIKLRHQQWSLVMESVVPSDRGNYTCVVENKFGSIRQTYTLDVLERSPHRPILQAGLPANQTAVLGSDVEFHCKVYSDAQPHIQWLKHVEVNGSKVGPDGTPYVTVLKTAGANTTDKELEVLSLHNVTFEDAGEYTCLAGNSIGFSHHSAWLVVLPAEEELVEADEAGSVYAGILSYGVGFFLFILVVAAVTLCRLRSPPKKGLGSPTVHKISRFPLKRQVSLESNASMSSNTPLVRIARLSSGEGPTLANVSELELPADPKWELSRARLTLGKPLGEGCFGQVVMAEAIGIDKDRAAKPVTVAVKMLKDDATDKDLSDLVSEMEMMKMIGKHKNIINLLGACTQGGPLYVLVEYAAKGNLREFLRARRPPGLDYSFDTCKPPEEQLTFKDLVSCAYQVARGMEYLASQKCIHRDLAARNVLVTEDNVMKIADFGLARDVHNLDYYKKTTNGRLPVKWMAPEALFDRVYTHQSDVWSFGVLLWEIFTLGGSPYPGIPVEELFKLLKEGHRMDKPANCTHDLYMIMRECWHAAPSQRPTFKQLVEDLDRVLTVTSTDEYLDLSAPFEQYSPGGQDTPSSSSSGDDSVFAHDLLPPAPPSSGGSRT

SMILES	IC50 [1]	IC50 [2]	IC50 [3]	IC50 [4]	IC50 [5]	IC50 [6]	also measured
O=C(Nc1cnn2ccc(N3CCC[C@@H]3c3cc(F)ccc3F)nc12)N1CC[C@H](O)C1 [Larotrectinib]	23600 nM	6370 nM	> 100000 nM	> 100000 nM	19600 nM	1980 nM	–
c1cn2cc(-c3ccc4cn[nH]c4c3)nc(Nc3ccc(N4CCOCC4)cc3)c2n1 [Entospletinib]	–	–	813 nM	–	244 nM	9900 nM	EC50 [7, 11]: 3000 nM
N#CCC1CCN(c2nc(Nc3ccc(N4CCC(O)CC4)cc3)c3c(=O)[nH]ncc3n2)CC1 [Gusacitinib]	5 to 46 nM	–	–	–	–	–	–
Cc1nn(-c2ccnc(Nc3ccc(-c4csc5c(=O)cc(N6CCOCC6)oc45)cc3)n2)cc1CN1CCC1 [SRX3207]	–	–	–	–	–	–	IC50 ([1]; read-out: IC50 Syk, ADP-Glo): 10.7 nM
COc1ccc(Nc2nc(-c3ccc4c(CN5CC(N)C5)c[nH]c4c3)cnc2C(N)=O)cc1OC [Compound S1213]	25 nM	25000 nM	> 20000 nM	> 20000 nM	> 2000 nM	> 3000 nM	LogP [8]: 1.04; EC50 [7, 12]: 1500 nM; bioavailability [9]: 2%
CCc1cc2c(cc1N1CCC(N3CCOCC3)CC1)C(C)(C)c1[nH]c3cc(C#N)ccc3c1C2=O [Alectinib]	37100 nM	–	1010 nM	1030 nM	335 nM	1810 nM	–
CCS(=O)(=O)N1CCN(c2ccc(Nc3ncc(C(N)=O)c(NC4CC4)n3)cc2)CC1 [Cerdulatinib]	–	–	–	–	–	–	IC50 ([1]; read-out: IC50 Syk, ADP-Glo): 32 nM
Oc1cc(O)cc(/C=C/c2ccc(O)c(O)c2)c1 [Piceatannal]	–	17600 nM	–	35000 nM	5000 nM	–	IC50 ([3]; read-out: IC50 IGF1R, ADP-Glo): 21500 nM; IC50 ([6]; read-out: IC50 FGFR3, ADP-Glo): 24700 nM
COc1ccc(Nc2nc(-c3ccc4c(CN5CC(C(=O)O)C5)c[nH]c4c3)cnc2C(N)=O)cc1OC [Compound S1219]	50 nM	–	–	–	–	–	LogP [8]: 1.54; bioavailability [9]: 1.1%
NC(=O)c1cnc(N[C@@H]2CCCC[C@@H]2N)nc1Nc1cccc(-n2nccn2)c1 [PRT062067]	–	–	–	–	–	–	EC50 [7, 11]: 300 nM
COc1ccc(Nc2nc(-c3ccc4c(CCCO)cn(C)c4c3)cnc2C(N)=O)cc1OC [Compound S2053]	147 nM	4300 nM	> 10000 nM	–	> 10000 nM	> 5000 nM	LogP [8]: 2.63; bioavailability [9]: 8%
COc1ccc(-c2cc3nccn3c(Nc3ncccc3C(N)=O)n2)cc1OC [Syk IV]	–	–	–	–	91.2 nM	–	–
COc1ccc(Nc2nc(-c3ccc4c(CCCN)cn(C)c4c3)cnc2C(N)=O)cc1OC [Compound S2054]	680 nM	–	–	–	–	–	–
NCCNc1ncc(C(N)=O)c(Nc2cccc(C(F)(F)F)c2)n1 [Syk II]	–	27000 nM	–	69400 nM	4210 nM	–	IC50 ([1]; read-out: IC50 Syk, ADP-Glo): 70.3 nM; IC50 ([3]; read-out: IC50 IGF1R, ADP-Glo): 13500 nM; IC50 ([6]; read-out: IC50 FGFR3, ADP-Glo): 36900 nM
COc1ccc(Nc2nc(-c3ccc4c(CN5CC(O)C5)c[nH]c4c3)cnc2C(N)=O)cc1OC [Compound S1115, 3-((3,4,-methoxyphenyl)amino)-5-(3-((3-hydroxyazetidin-1-yl)methyl)-1H-indol-6-yl)pyrazine-2-carboxamide]	2.2 nM	140 nM	900 nM	> 40000 nM	75 nM	–	LogP [8]: 1.42; EC50 [7, 12]: 226 nM; EC50 [7, 13]: 262 nM; EC50 [7, 14]: 1590 nM; bioavailability [9]: 2%
Cn1cc(-c2cc3c(N4CCN(c5ncc([C@@](C)(N)c6ccc(F)cc6)cn5)CC4)ncnn3c2)cn1 [Avapritinib]	280 nM	8730 nM	> 100000 nM	25000 nM	2580 nM	1020 nM	–
NC(=O)c1nnc(N[C@@H]2CCCC[C@@H]2N)nc1Nc1cccc2cc[nH]c12 [Syk-IN-1]	–	–	–	–	–	–	IC50 ([1]; read-out: IC50 Syk, ADP-Glo): 31 nM
Nc1cncc(-c2cn3ccnc3c(Nc3ccc(N4CCN(C5COC5)CC4)cc3)n2)n1 [Lanraplenib]	–	4270 nM	2430 nM	> 100000 nM	778 nM	69400 nM	EC50 [7, 12]: 3000 nM
Cn1cc(-c2nc(N[C@@H]3CCCC[C@@H]3N)c(F)c3c2C(=O)NC3)cn1 [TAK-659]	–	27600 nM	–	3160 nM	150 nM	–	IC50 ([6]; read-out: IC50 FGFR3, ADP-Glo): 19 nM
COc1cc(Nc2ncc(F)c(Nc3ccc4c(n3)N(COP(=O)(O)O)C(=O)C(C)(C)O4)n2)cc(OC)c1OC [Fostamtinib]	–	342 nM	638 nM	1570 nM	18.7 nM	91.4 nM	–
CN1CCN(c2ccc(C(=O)Nc3n[nH]c4ccc(Cc5cc(F)cc(F)c5)cc34)c(NC3CCOCC3)c2)CC1 [Entrectinib]	–	–	–	–	441 nM	246 nM	–
Cc1cc(Nc2nccc(C)n2)cc(-c2cnc([C@@]3(O)CC[C@H](C(=O)O)C(C)(C)C3)s2)c1 [Syk-IN-3]	–	–	–	–	–	–	IC50 ([1]; read-out: IC50 Syk, ADP-Glo): 1 nM
Cc1cc(Nc2nc(N[C@@H]3CCOC[C@@H]3N)nnc2C(N)=O)cc2cn(C(C)(C)C)nc12 [TAS05567]	–	–	–	–	–	–	IC50 ([1]; read-out: IC50 Syk, ADP-Glo): 0.37 nM
COc1ccc(Nc2nc(-c3ccc4c(CN5CC(O)C5)cn(CO)c4c3)cn3ccnc23)cc1OC [Compound S970D]	80 nM	650 nM	> 5000 nM	> 40000 nM	2100 nM	–	LogP [8]: 2.28; EC50 [7, 12]: 716 nM; EC50 [7, 13]: 572 nM
Cc1cc(Nc2ncnc3ccc(NC4=NC(C)(C)CO4)cc23)ccc1Oc1ccn2ncnc2c1 [Tucatinib]	4930 nM	38.8 nM	> 100000 nM	11100 nM	1960 nM	66500 nM	–
COc1ccc(Nc2nc(-c3ccc4c(CN5CC(O)C5)c[nH]c4c3)cn3ccnc23)cc1OC [Compound S970, 1-((6-(8-((3,4-dimethoxyphenyl)amino)imidazo[1,2-a]pyrazin-6-yl)-1H-indol-3-yl)methyl)azetidin-3-ol]	177 nM	8000 nM	–	–	4000 nM	–	Ratio of IC50 SYK/Kinases: SYK ([1]; selectivity ratio): 1; LogP [8]: 2.29; EC50 [7, 12]: 1500 nM; EC50 [7, 13]: 4400 nM; EC50 [7, 14]: 10000 nM; Ratio of IC50 SYK/Kinases: EGFR ([2]; selectivity ratio): 44; Ratio of IC50 SYK/Kinases: IGF1R ([3]; selectivity ratio): 55; Ratio of IC50 SYK/Kinases: HGFR ([4]; selectivity ratio): 220; Ratio of IC50 SYK/Kinases: VEGFR3 [10]: 22; Ratio of IC50 SYK/Kinases: FGF3R ([6]; selectivity ratio): 55
NC(=O)c1ncc(-c2ccc3c(CN4CC(N)C4)c[nH]c3c2)nc1Nc1cccc(-n2nccn2)c1 [Compound S1214]	530 nM	–	–	–	–	–	–
COc1cc(Nc2ncc(F)c(Nc3ccc4c(n3)NC(=O)C(C)(C)O4)n2)cc(OC)c1OC [Compound R406]	–	–	–	–	–	–	EC50 [7, 11]: 5000 nM
CCn1c(=O)c(-c2cc(NC(=O)Nc3ccccc3)c(F)cc2Br)cc2cnc(NC)cc21 [Ripretinib]	13200 nM	9930 nM	> 100000 nM	3020 nM	0.24 nM	84.4 nM	–
